Test results published in PMC7286788 (ACS infectious diseases, 2019).
Read-outs that look alike come from different tables or passages of the source. Marks after values point to notes of the source that are not given here. Starred links: 1 amine or outer side, 2 acyl side, 3 side chain; linkers in the order of their positions; H or OH if unused. Positions of bridges follow the written chain, without caps; N, C: chain ends. Non-standard residues stand in square brackets, D forms with d. Residues, ends and D or L forms follow the SMILES beside them. ξ: configuration not given here. *: point of attachment. X3 = O=C(C(N[*:1])c1ccc(OC2OC(CO)C(O)C(O)C2OC2OC(CO)C(O)C(O)C2O)cc1)[*:2]; ξPhg(3-Cl-4-OH) = NC(C(=O)O)c1ccc(O)c(Cl)c1; X2 = NC(=O)C(O[*:3])C(N[*:1])C(=O)[*:2]; Hpg = N[CH](C(=O)O)c1ccc(O)cc1; Orn = NCCC[CH](N)C(=O)O; X1 = CC(C)CC=CC=CC(=O)*

What was measured:
[1] = Cytotoxicity against Vero cells; conditions: African green monkey
MsmegMurG [2] = target: T1, MsmegMurG (Mycolicibacterium smegmatis, UniProt A0R016); test: biochemical; parameters: species or system Mycobacterium smegmatis; conditions: for inhibition at 10 µM / inhibition at 50 µM / inhibition at 100 µM: read-out: (MsmegMurG) inhibition (%)
in vitro = conditions: African green monkey
HyMraY = test: Kinetic studies with HyMraY; type: biochemical, Hydrogenivirga sp.
M. tuberculosis (H37Rv) = test: MIC determination, M. tuberculosis; type: cell-based, Mycobacterium tuberculosis; conditions: 7H9 containing OADC; 14 days
M. smegmatis (ATCC607) = test: MIC determination, resazurin, M. smegmatis; type: cell-based, Mycobacterium smegmatis; conditions: 7H9 with 0.5% tween 80, 3 days at 37 °C
MsmegMurG [3] = target: T1, MsmegMurG; test: biochemical; parameters: species or system Mycobacterium smegmatis
HyMurG [4] = target: T2, HyMurG (Hydrogenivirga sp. 128-5-R1-1, UniProt A8US35); test: UV-Vis-based MurG assay; type: biochemical; conditions: for Inhibition of MurG function / lipid II formation: 50–100 μM; for inhibition at 10 µM / inhibition at 50 µM / inhibition at 100 µM: read-out: HthermMurG inhibition (%); for IC50: read-out: IC50 against HyMurG via UV-Vis spectrometry, dose-response curves
T2 sequence (A8US35 1-350): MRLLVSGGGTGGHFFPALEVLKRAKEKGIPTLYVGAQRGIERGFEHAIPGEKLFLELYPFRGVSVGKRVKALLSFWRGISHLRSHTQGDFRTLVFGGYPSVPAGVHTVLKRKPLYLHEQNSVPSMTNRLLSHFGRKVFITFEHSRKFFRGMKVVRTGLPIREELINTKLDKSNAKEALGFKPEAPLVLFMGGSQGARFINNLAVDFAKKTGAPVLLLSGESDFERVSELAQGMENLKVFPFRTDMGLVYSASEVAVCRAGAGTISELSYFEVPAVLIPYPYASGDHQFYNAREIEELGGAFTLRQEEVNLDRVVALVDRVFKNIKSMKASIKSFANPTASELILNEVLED

MsmegMraY = MsmegMraY (Mycolicibacterium smegmatis, UniProt A0R019); test: biochemical; type: biochemical, Mycobacterium smegmatis
MsmegMraY, sequence (A0R019 whole entry): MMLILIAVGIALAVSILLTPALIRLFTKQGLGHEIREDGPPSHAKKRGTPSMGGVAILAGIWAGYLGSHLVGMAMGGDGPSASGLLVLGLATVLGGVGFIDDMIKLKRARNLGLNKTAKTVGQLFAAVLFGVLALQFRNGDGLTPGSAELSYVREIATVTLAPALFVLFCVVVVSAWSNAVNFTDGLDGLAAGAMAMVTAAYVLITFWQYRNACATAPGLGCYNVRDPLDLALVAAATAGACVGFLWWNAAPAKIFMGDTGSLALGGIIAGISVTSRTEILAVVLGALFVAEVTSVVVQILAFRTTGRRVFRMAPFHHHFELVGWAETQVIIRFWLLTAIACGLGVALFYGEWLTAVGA

HyMurG [5] = target: T2, HyMurG; test: HPLC-based MurG assay, dose-response, HyMurG; type: biochemical; conditions: read-out: IC50 HyMurG; HPLC-based method; average of two-three experiments
[6] = tested on: M. smegmatis (ATCC607) and M. tuberculosis (H37Rv); test: Antimycobacterial activity, text summary for both species; type: cell-based, Mycobacterium spp.; conditions: 50 μg/mL
MurG = target: T3, MurG (Mycolicibacterium smegmatis, UniProt A0R016); test: MurG kinetic parameters and mode of inhibition, enzyme source not stated; type: biochemical
T3 sequence (A0R016 1-385): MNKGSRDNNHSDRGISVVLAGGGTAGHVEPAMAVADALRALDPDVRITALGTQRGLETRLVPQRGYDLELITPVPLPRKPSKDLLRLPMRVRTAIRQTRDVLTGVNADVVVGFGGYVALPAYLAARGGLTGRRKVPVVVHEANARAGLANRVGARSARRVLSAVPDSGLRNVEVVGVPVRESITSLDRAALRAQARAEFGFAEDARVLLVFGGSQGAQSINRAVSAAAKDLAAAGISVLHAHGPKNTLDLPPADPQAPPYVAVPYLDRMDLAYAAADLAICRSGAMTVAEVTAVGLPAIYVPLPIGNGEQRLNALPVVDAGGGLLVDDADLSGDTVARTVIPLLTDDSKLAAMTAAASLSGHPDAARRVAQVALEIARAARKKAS

[7] = target: MurG, P-60 (M. smegmatis) (Mycolicibacterium smegmatis, UniProt A0R016); test: Competition reaction of UDP-GlcN-C6-FITC; type: biochemical, Mycobacterium smegmatis
[8] = substrate: CC(=O)N[C@H]1[C@@H](OP(=O)(O)OP(=O)(O)OC[C@H]2O[C@@H](n3ccc(=O)[nH]c3=O)[C@H](O)[C@@H]2O)O[C@H](CO)[C@@H](O)[C@@H]1O; test: Kinetic studies of MurG of M. smegmatis; type: biochemical, Mycobacterium smegmatis; conditions: other: apparent Km
[9] = read-out: IC50 MsmegMurG, HPLC-based method, average of two-three experiments
[10] = read-out: IC50 MsmegMraY, HPLC-based method, average of two-three experiments

CN[C@H](CC(C)C)C(=O)N[C@H]1C(=O)N[C@@H](CC(N)=O)C(=O)N[C@H]2C(=O)N[C@H]3C(=O)N[C@H](C(=O)N[C@H](C(=O)O)c4cc(O)cc(O)c4-c4cc3ccc4O)[C@H](O)c3ccc(c(Cl)c3)Oc3cc2cc(c3O[C@@H]2O[C@H](CO)[C@@H](O)[C@H](O)[C@H]2O[C@H]2C[C@](C)(N)[C@H](O)[C@H](C)O2)Oc2ccc(cc2Cl)[C@H]1O [Vancomycin, vancomycin]
IC50 [1]: > 100 µg/mL | inhibition at 10 µM (MsmegMurG [2]): 60% | inhibition at 50 µM (MsmegMurG [2]): 67% | inhibition at 100 µM (MsmegMurG [2]): 58%

CC[C@@H](CO)NCCN[C@@H](CC)CO [Ethambutol]
IC50 (in vitro): > 100 µg/mL

Park’s nucleotide-N^ε-C6-dansylthiourea [Compound 1e]
kcat of HyMraY for 1e (HyMraY): 0.38 s⁻¹

NNC(=O)c1ccncc1 [INH]
Vero cell cytotoxicity IC50 (Vero cell): >100 µg/mL | M. tuberculosis (H37Rv) MIC (M. tuberculosis (H37Rv)): 0.16 µg/mL | M. smegmatis (ATCC607) MIC (M. smegmatis (ATCC607)): 0.78 µg/mL

C=C(C/C=C(\C)CCC=C(C)C)CCC(C)(C)/C=C/CC/C(C)=C\CO[C@H](COP(=O)(O)O[C@H]1O[C@H](C(N)=O)[C@@](C)(O)[C@H](OC(N)=O)[C@H]1O[C@@H]1O[C@H](CO[C@@H]2O[C@H](CO)[C@@H](O)[C@H](O)[C@H]2O)[C@@H](O[C@@H]2O[C@H](C)[C@@H](O[C@@H]3O[C@H](C(=O)NC4=C(O)CCC4=O)[C@H](O)[C@H](O)[C@H]3O)[C@H](O)[C@H]2NC(C)=O)[C@H](O)[C@H]1NC(C)=O)C(=O)O [Moenomycin A, moenomycin A]
IC50 (MsmegMurG [3]): > 100 µM | Inhibition of MurG function / lipid II formation (HyMurG [4]): did not inhibit | inhibition at 10 µM (HyMurG [4]): 0% | inhibition at 50 µM (HyMurG [4]): 0% | inhibition at 100 µM (HyMurG [4]): 12% | IC50 (MsmegMraY): > 100 µM | inhibition at 10 µM (MsmegMurG [2]): 0% | inhibition at 50 µM (MsmegMurG [2]): 0% | inhibition at 100 µM (MsmegMurG [2]): 15%

CO[C@H]1[C@@H](OC)[C@H](n2ccc(=O)[nH]c2=O)O[C@@H]1[C@@H](O[C@H]1OC(C(=O)N[C@H]2CCCCNC2=O)=C[C@H](O)[C@@H]1O)C(N)=O [O-Methylcapuramycin, O-methylcapuramycin]
IC50 (MsmegMurG [3]; [9]): > 100 µM | Inhibition of MurG function / lipid II formation (HyMurG [4]): did not inhibit | IC50 (MsmegMraY; [10]): > 100 µM | IC50 (HyMurG [5]): > 100 µM

NC(=O)OC[C@H](O)[C@@H](O)[C@H](N)C(=O)N[C@H](C(=O)O)[C@H]1O[C@@H](n2cc(C(=O)O)c(=O)[nH]c2=O)[C@H](O)[C@@H]1O [Polyoxin D, polyoxin D]
IC50 (MsmegMurG [3]; [9]): 55 µM | Growth inhibition of M. smegmatis and M. tuberculosis [6]: did not inhibit growth | Vero cell cytotoxicity IC50 (Vero cell): >100 µg/mL | IC50 (MsmegMraY; [10]): > 100 µM | M. tuberculosis (H37Rv) MIC (M. tuberculosis (H37Rv)): >50.0 µg/mL | IC50 (HyMurG [5]): 50.8 µM | M. smegmatis (ATCC607) MIC (M. smegmatis (ATCC607)): >50.0 µg/mL

CO[C@H]1[C@@H](O)[C@H](n2ccc(=O)[nH]c2=O)O[C@@H]1[C@@H](O[C@H]1OC(C(=O)N[C@H]2CCCCNC2=O)=C[C@H](O)[C@@H]1O)C(N)=O [Capuramycin, capuramycin]
IC50 (MsmegMurG [3]): > 100 µM | Inhibition of MurG function / lipid II formation (HyMurG [4]): did not inhibit | inhibition at 10 µM (HyMurG [4]): 0% | inhibition at 50 µM (HyMurG [4]): 0% | inhibition at 100 µM (HyMurG [4]): 0% | IC50 (MsmegMraY): 0.13 µM | inhibition at 10 µM (MsmegMurG [2]): 0% | inhibition at 50 µM (MsmegMurG [2]): 0% | inhibition at 100 µM (MsmegMurG [2]): 0%

CO[C@H]1/C=C/O[C@@]2(C)Oc3c(C)c(O)c4c(O)c(c(/C=N/N5CCN(C)CC5)c(O)c4c3C2=O)NC(=O)/C(C)=C\C=C\[C@H](C)[C@H](O)[C@@H](C)[C@@H](O)[C@@H](C)[C@H](OC(C)=O)[C@@H]1C [Rifampicin]
IC50 (in vitro): > 100 µg/mL

CC(C)CC=CC=CC(=O)NC(CC(N)=O)C(=O)NC1C(=O)NC(c2ccc(O)cc2)C(=O)NC(CCCN)C(=O)NC(C(C)O)C(=O)NC(c2ccc(O)cc2)C(=O)NC(c2ccc(O)cc2)C(=O)NC(C(C)O)C(=O)NC(Cc2ccccc2)C(=O)NC(CCCN)C(=O)NC(c2ccc(OC3OC(CO)C(O)C(O)C3OC3OC(CO)C(O)C(O)C3O)cc2)C(=O)NC(C(C)O)C(=O)NC(c2ccc(O)cc2)C(=O)NCC(=O)NC(CC(C)C)C(=O)NC(C)C(=O)NC(c2ccc(O)c(Cl)c2)C(=O)OC1C(N)=O (stereo not drawn) [Ramoplanin A2, ramoplanin A2] (X1-N[X2][Hpg][Orn]T[Hpg][Hpg]TF[Orn][X3]T[Hpg]GLA[ξPhg(3-Cl-4-OH)]; ester 2-C; configuration not given here)
IC50 (HyMurG [4]): 22.4 µM | IC50 (MsmegMraY): > 100 µM | IC50 [1]: > 100 µg/mL | inhibition at 10 µM (MsmegMurG [2]): 0% | inhibition at 50 µM (MsmegMurG [2]): 100% | inhibition at 100 µM (MsmegMurG [2]): 100% | IC50 (HyMurG [5]): 22.4 µM

C[C@@H]([C@H](N)C(=O)N[C@H](C(=O)O)[C@H]1O[C@@H](n2ccc(=O)[nH]c2=O)[C@H](O)[C@@H]1O)[C@H](O)c1ccc(O)cn1 [Nikkomycin Z, nikkomycin Z]
IC50 (MsmegMurG [3]): 9.5 µM | inhibition at 10 µM (HyMurG [4]): 33% | inhibition at 50 µM (HyMurG [4]): 50% | inhibition at 100 µM (HyMurG [4]): 95% | IC50 (HyMurG [4]): 8.7 µM | Growth inhibition of M. smegmatis and M. tuberculosis [6]: did not inhibit growth | IC50 (MsmegMraY): > 100 µM | IC50 (MsmegMurG [2]): 9.5 µM | inhibition at 10 µM (MsmegMurG [2]): 35% | inhibition at 50 µM (MsmegMurG [2]): 45% | inhibition at 100 µM (MsmegMurG [2]): 93% | IC50 (HyMurG [5]): 8.7 µM | IC50 (in vitro): > 100 µg/mL | Mode of MurG inhibition (MurG): competitive inhibitory activity

O=C(NC(=O)c1ccccc1Cl)Nc1ccc(OC(F)(F)F)cc1 [Triflumuron, triflumuron]
IC50 (MsmegMurG [3]): > 100 µM | Inhibition of MurG function / lipid II formation (HyMurG [4]): did not inhibit | inhibition at 10 µM (HyMurG [4]): 0% | inhibition at 50 µM (HyMurG [4]): 0% | inhibition at 100 µM (HyMurG [4]): 0% | IC50 (MsmegMraY): > 100 µM | inhibition at 10 µM (MsmegMurG [2]): 0% | inhibition at 50 µM (MsmegMurG [2]): 0% | inhibition at 100 µM (MsmegMurG [2]): 0% | IC50 (HyMurG [5]): > 100 µM

CC(=O)N[C@H]1[C@@H](OP(=O)(O)OP(=O)(O)OC[C@H]2O[C@@H](n3ccc(=O)[nH]c3=O)[C@H](O)[C@@H]2O)O[C@H](CO)[C@@H](O)[C@@H]1O [UDP-GlcNAc]
IC50 [7]: 8.4 µM | UDP-GlcNAc required for 100%-disappearance of 9-C55 ([7]; 8 at 375 μM): > 200 µM

UDP-Glucosamine-C6-FITC [Compound 8]
Km (MurG; read-out: Km for UDP-GlcN-C6-FITC probe (8), 2e-C55 75 μM): 54 µM

B1: MurG of M. smegmatis (Mycolicibacterium smegmatis MC2 155) (protein)
chain: MNKGSRDNNHSDRGISVVLAGGGTAGHVEPAMAVADALRALDPDVRITALGTQRGLETRLVPQRGYDLELITPVPLPRKPSKDLLRLPMRVRTAIRQTRDVLTGVNADVVVGFGGYVALPAYLAARGGLTGRRKVPVVVHEANARAGLANRVGARSARRVLSAVPDSGLRNVEVVGVPVRESITSLDRAALRAQARAEFGFAEDARVLLVFGGSQGAQSINRAVSAAAKDLAAAGISVLHAHGPKNTLDLPPADPQAPPYVAVPYLDRMDLAYAAADLAICRSGAMTVAEVTAVGLPAIYVPLPIGNGEQRLNALPVVDAGGGLLVDDADLSGDTVARTVIPLLTDDSKLAAMTAAASLSGHPDAARRVAQVALEIARAARKKAS
Km ([8]; 2e-C55 37.5 μM): 36 ± 10^b μM | Km ([8]; 2e-C55 75.0 μM): 37 ± 3.0 µM
